Patent US5763400A, “Ecdysis-triggering hormone compositions” (priority 1996, dated 1998)
“Also recorded” adds a separate entry of the source. Ends that are not written are not given here.

Experiments:
[1] = tested on: pharate 5th instar larvae; assay: Injection into pharate 5th instar larvae: induction of pre-ecdysis and ecdysis behavior; assay type: in vivo, Manduca sexta; details: for biological activity of additional EG peptides: initial RPLC data on EG
Procedure: A peptide with ecdysis-triggering activity was also purified from an extract of 50 pharate pupal EG with reversed-phase liquid chromatography (RPLC) (FIG. 1A) . For HPLC fractionation, freshly-dissected EG were homogenized in acidic methanol (MeOH: H2 O:acetic acid, 90:9:1) and the supernatant was evaporated to dryness. Crude extracts of EG were fractionated with a Microsorb C4 column (wide pore 300 A, 4.6 mm/25 cm), with a linearly increasing gradient of acetonitrile (3 to 53% in 90 min) in constant 0.1% TFA/water using a flow rate of 1 ml/min. Fractions were collected based on UV absorbance (220 nm) and vacuum centrifuged to dryness. Individual fractions were re-suspended in physiological saline and injected into pharate fifth instar Manduca sexta larvae. Induction of preecdysis behavior, visible as synchronous dorso-ventral contractions in body segments, were scored as positive responses.
(§1) Natural ecdysis in pharate 5th instar larvae is preceded by a well-defined pre-ecdysis behavior, characterized by dorso-ventral contractions that occur synchronously in abdominal and thoracic segments (Copenhaver and Truman, 1982; Truman and Weeks, 1983, 1985). Contractions, visible as a dimpling of the dorso-lateral body wall, begin in the most posterior segment, and gradually spread anteriorly. Pre-ecdysis behavior typically lasts 60 to 80 min, and is followed by ecdysis behavior, which lasts about 10 min. Ecdysis behavior is characterized by a distinctly different motor pattern consisting of peristaltic waves of contractions, which originate in the most posterior segment and move anteriorly (Weeks and Truman, 1984). Using a pressure transducer to record changes in internal pressure, in vivo measurements of pre-ecdysis and ecdysis contraction patterns were obtained in pharate 5th instar larvae and pharate pupae. Internal hydrostatic pressure was measured in pharate 5th instar larvae and pharate pupae of Manduca sexta with a Gould-Statham P23-ID pressure transducer. The transducer was connected to a saline-filled tube which in turn was attached to the posterior dorsal horn of pharate 5th instar larvae and pharate pupae with low melting point dental wax.
During natural pre-ecdysis in the larva, dorso-ventral contractions typically occur every 10 to 12 seconds with a duration of 5 to 7 seconds (FIG. 2A). When pharate larvae were injected with Mas-ETH (20 pmol to 1 nmol), pre-ecdysis began within 2 to 10 min, and the pattern was indistinguishable from that observed under natural conditions (n=13). The pre-ecdysis induced by Mas-ETH injection lasted 35 to 65 min, and was followed by ecdysis (FIG. 2A).
At about 36 hours preceding natural ecdysis in pharate 5th instar larvae, the first signs of apolysis can be observed as an accumulation of molting fluid in the prothorax. About two hours later, head capsule slip occurs (Curtis et al., 1984). Premature ecdysis behavior induced by Mas-ETH injection (34-10 hours prior to natural ecdysis) lasted from 10 to 45 min. […] Mas-ETH triggered successful ecdysis only after the old cuticle is sufficiently digested, some 6 to 8 hr before normal ecdysis. Sensitivity to ETH, therefore, is shown to exist during the pharate stage.
The ETH-PRP1 peptide was dissolved into physiological saline and injected into pharate fifth instar Manduca sexta larvae. A dose range of 50 pmol to 5 nmol was tested.

pharate pupae = assay: Injection into pharate pupae: induction of pre-ecdysis and ecdysis; assay type: in vivo, Manduca sexta; details: 400 pmol to 1 nmol
Procedure: as §1
Pharate pupae responded to injections (400 pmol to 1 nmol) (FIG. 2B; n=12) up to 48 hours prior to natural ecdysis. […]

pharate adults = assay: Injection into pharate adults: induction of ecdysis (eclosion); assay type: in vivo, Manduca sexta
Procedure: Pharate pupae responded to injections (400 pmol to 1 nmol) (FIG. 2B; n=12) up to 48 hours prior to natural ecdysis. […] Ecdysis followed after a period of 50 to 90 min. Pharate adults responded to Mas-ETH injections (1 to 2 nmol) up to 24 hours prior to natural ecdysis (n=10). Rotatory movements of the abdomen began within 3 to 10 min of injection and were followed by a period of relative quiescence.

[2] = tested on: isolated central nervous system of pharate 5th instar larvae; assay: Motor burst patterns of isolated central nervous system of pharate 5th instar larvae, bath application; assay type: cell-based, Manduca sexta
Procedure: (§2) The entire central nervous system or a chain of abdominal ganglia dissected from pharate fifth instar larvae or pharate pupae were placed in a 300 ml Sylgard bath and bathed in modified Weever's saline. Motor output was recorded extracellularly from dorsal roots of abdominal ganglia A5, A6, and A7 using polyethylene suction electrodes. Potentials were amplified with Grass P-15 AC amplifiers, captured on video tape, and played back on a Gould Brush pen recorder. To record natural pre-ecdysis and ecdtysis, the nervous system was removed after initiation of the behavior.
For studies involving bath application of synthetic MasETH, pharate 5th instar nerve cords were dissected at -8 hr prior to ecdysis, using liquid-Lilled head and brown mandibles as morphological markers. Pharate pupae were dissected at 8 hours prior to natural ecdysis using brown bars as the morphological marker.
(§3) The tracheal system was removed in all studies. The pattern of pre-eccdysisin isolated pharate 5th instar CNS under natural conditions was quite similar to that elicited by application of 100 nM Mas-ETH. To observe natural pre-ecdysis and ecdysis motor patterns, animals were observed until initiation of pre-ecdysis, at which time nerve cords were quickly removed and prepared for suction electrode recordings. In both instances, pre-ecdysis bursts occurred synchronously in the dorsal nerves of A5-A7 every 10 to 12 seconds with a duration of 5 to 10 sec. Similarly, the burst pattern driving ecdysis in pharate larvae under natural conditions was similar to that resulting from exposure to 1 mM Mas-ETH. Ecdysis bursts occurred every 20 to 30 seconds and were about 20 sec in duration, with an intersegmental delay of about 5 sec. Burst durations and intervals between bursts became longer as the behavior progressed, which corresponded to observations of natural behavior patterns. Optimal Mas-ETH concentrations for triggering pre-ecdysis were lower than those necessary for ecdysis.

[3] = tested on: isolated nerve cords lacking the tracheal system; assay: Pre-ecdysis and ecdysis motor patterns in isolated nerve cords lacking the tracheal system; assay type: cell-based, Manduca sexta; details: absence of the tracheal system
Procedure: as §2
as §3, with “Burst durations and intervals between bursts became longer as the behavior progressed, which corresponded to observations of natural behavior patterns. Optimal Mas-ETH concentrations for triggering pre-ecdysis were lower than those necessary for ecdysis.” left out

[4] = tested on: pharate fourth instar Manduca sexta larvae; assay: Injection into pharate fourth instar larvae (liquid-filled head capsule stage), carboxy-terminus study; details: in vivo
Procedure: The amidated and acid form of the 26 mer of SEQ ID NO:3 was prepared using a solid state synthesizer. This procedure is the same as that described at example 7. The amidated and acid forms of ETH used in the present study were synthesized by Research Genetics Corporation using these standard protocols (5 mg. each of the amidated-ETH and the acid-ETH).

larval insects = assay: Injection of synthetic Bom-ETH forms into larval insects; assay type: in vivo, Bombyx mori; details: free acid at doses much higher than the amidated form
Procedure: Synthetic Bom-ETH was prepared according to standard solid phase peptide synthesis methods by Research Genetics, Inc. (Birmingham, AL) to provide a peptide having the amino acid sequence of the 23 mer. Both the amidated and free --COOH terminal forms were prepared.

[5] = Physiological actions of ETH-PRP2 (no method described)
[6] = tested on: pharate 5th instar larvae; assay: Injection into pharate 5th instar larvae: induction of pre-ecdysis and ecdysis behavior; assay type: in vivo, Manduca sexta; details: injected into insect larvae

Compound: CCOc1ccc2nc(S(N)(=O)=O)sc2c1 [Mas-ETH]
- behavior exhibited after injection ([1]; injected at head capsule slip, 34 hours prior to normal ecdysis): both pre-ecdysis and ecdysis motor patterns
- outcome of premature ecdysis behavior ([1]; injection 34-10 hours prior to natural ecdysis): ecdysis could not be completed
- time prior to normal ecdysis at which larvae respond to injection ([1]; pre-ecdysis behavior, n=7): up to 36 hours
- pre-ecdysis by blood pressure measurements (pharate pupae; earlier stages of development): clear rhythm within minutes
- time prior to natural ecdysis at which pharate pupae respond to injection (pharate pupae; n=12): up to 48 hours
- time prior to natural ecdysis at which pharate adults respond to injection (pharate adults; 1 to 2 nmol, n=10): up to 24 hours
- condition of emerged adults (pharate adults; emerged before resorption of molting fluid): could not inflate their wings
- interval of pre-ecdysis bursts (every) ([2]; 100 nM, dorsal nerves of A5-A7): 10 to 15 s
- pre-ecdysis burst duration ([2]; 100 nM, dorsal nerves of A5-A7): 5 to 7 s
- ecdysis burst duration ([2]; 1 mM Mas-ETH): about 20 sec
- intersegmental delay of ecdysis bursts ([2]; 1 mM Mas-ETH): about 5 sec
- pre-ecdysis and ecdysis motor patterns of isolated CNS [3]: elicited motor burst patterns; also recorded: can generate pre-ecdysis and ecdysis motor patterns
- pre-ecdysis and ecdysis motor patterns of isolated CNS ([3]; listed as ETH): responds to ETH; also recorded: responded; also recorded: not required
- dose causing preecdysis followed by ecdysis [4]: ≤ 1 pmol

Compound: SNEAFDEDVMGYVIKSNKNIPRM (not fully specified (C-terminus)) [Bom-ETH amidated form]
- biological activity upon injection (larval insects): biologically active

Compound: ETH-PRP2: 15-mer peptide deduced from the ETH precursor, Gln 20 to Val 34, SEQ ID NO:13 (QVESSFIKPNNVPRV)
- biological activity of additional EG peptides [1]: ETH-like biological activity
- cardioacceleration [5]: acts as a cardioaccelerator
- effect on physiological actions of Mas-ETH [5]: increasing its ecdysis triggering activity

Compound: ETH-PRP1: 47-mer peptide, Asn 66 to Met 112 of the ETH precursor, SEQ ID NO:14, chemically synthesized (NYDSENRFDIPKLYPWRAENTELYEDDAQPTNGEEINGFYGKQRENM)
- ecdysis behavior ([1]; dose range 50 pmol to 5 nmol): did not elicit ecdysis behavior
- latency from injection to preecdysis behavior ([1]; dose range 50 pmol to 5 nmol): 15 to 20 min
- pre-ecdysis stimulating activity ([1]; in vivo): pre-ecdysis stimulating activity
- biological activity of additional EG peptides [1]: ETH-like biological activity
- cardioactivity [6]: causes cardioacceleration
